Results published in BindingDB's records for doi:10.1124/mol.64.4.841 (Pohang University of Science and Technology, 2003).
Square brackets hold non-standard residues; d marks the D form. Peptide text beside a SMILES is read from it.

Each compound was assayed against T1, fMet-Leu-Phe receptor (Homo sapiens, UniProt P21462).
T1 sequence (P21462 whole entry): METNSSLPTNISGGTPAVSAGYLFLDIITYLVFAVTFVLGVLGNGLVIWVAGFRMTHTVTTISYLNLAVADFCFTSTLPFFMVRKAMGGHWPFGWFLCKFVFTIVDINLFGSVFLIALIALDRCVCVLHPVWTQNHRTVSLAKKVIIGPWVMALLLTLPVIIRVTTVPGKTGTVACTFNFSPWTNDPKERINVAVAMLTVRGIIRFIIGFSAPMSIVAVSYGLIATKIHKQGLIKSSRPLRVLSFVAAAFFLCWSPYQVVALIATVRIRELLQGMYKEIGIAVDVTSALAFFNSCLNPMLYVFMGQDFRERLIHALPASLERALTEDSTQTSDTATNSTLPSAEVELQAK

Row | SMILES | Ki [nM]
1 | CSCC[C@H](NC(=O)[C@H](Cc1ccc(O)cc1)NC(=O)[C@H](CCC(=O)O)NC(=O)[C@@H](N)Cc1c[nH]c2ccccc12)C(=O)N[C@H](C(=O)N[C@H](CCSC)C(N)=O)C(C)C [WEYMVm-NH2] (H-WEYMV[dM]-NH2) | 323
2 | CSCC[C@H](NC(=O)[C@H](Cc1ccc(O)cc1)NC(=O)[C@H](Cc1c[nH]cn1)NC(=O)[C@@H](N)Cc1c[nH]c2ccccc12)C(=O)N[C@H](C(=O)N[C@H](CCSC)C(N)=O)C(C)C [WHYMVm-NH2] (H-WHYMV[dM]-NH2) | 32
3 | CSCC[C@H](NC(=O)[C@H](Cc1c[nH]c2ccccc12)NC(=O)[C@H](CCCCN)NC(=O)[C@@H](N)Cc1c[nH]c2ccccc12)C(=O)N[C@H](C(=O)N[C@H](CCSC)C(N)=O)C(C)C [WKWMVm-NH2] (H-WKWMV[dM]-NH2) | 19
4 | CSCC[C@H](NC(=O)[C@H](Cc1ccc(O)cc1)NC(=O)[C@H](CCCCN)NC(=O)[C@@H](N)Cc1c[nH]c2ccccc12)C(=O)N[C@@H](Cc1ccccc1)C(=O)N[C@H](CCSC)C(N)=O [WKYM(F/W)m-NH2] | 57
5 | CSCC[C@H](NC(=O)[C@H](Cc1ccc(O)cc1)NC(=O)[C@H](CCCCN)NC(=O)[C@@H](N)Cc1c[nH]c2ccccc12)C(=O)N[C@@H](Cc1ccc(O)cc1)C(=O)N[C@H](CCSC)C(N)=O [WKYMYm-NH2] (H-WKYMY[dM]-NH2) | 671
6 | CSCC[C@H](NC(=O)[C@H](Cc1ccc(O)cc1)NC(=O)[C@H](CCCNC(=N)N)NC(=O)[C@@H](N)Cc1c[nH]c2ccccc12)C(=O)N[C@H](C(=O)N[C@H](CCSC)C(N)=O)C(C)C [WRYMVm-NH2] (H-WRYMV[dM]-NH2) | 55
7 | CSCC[C@H](NC(=O)[C@@H](N)Cc1ccc(O)cc1)C(=O)N[C@H](C(=O)N[C@H](CCSC)C(N)=O)C(C)C [YMVm-NH2] (H-YMV[dM]-NH2) | 567

Now from value to compound:

Row | Ki [nM] | SMILES
8 | 99 | CSCC[C@H](NC(=O)[C@H](Cc1ccc(O)cc1)NC(=O)[C@H](CC(=O)O)NC(=O)[C@@H](N)Cc1c[nH]c2ccccc12)C(=O)N[C@H](C(=O)N[C@H](CCSC)C(N)=O)C(C)C [WDYMVm-NH2] (H-WDYMV[dM]-NH2)
9 | 1300 | CSCC[C@H](NC(=O)[C@H](CC(=O)O)NC(=O)[C@H](CCCCN)NC(=O)[C@@H](N)Cc1c[nH]c2ccccc12)C(=O)N[C@H](C(=O)N[C@H](CCSC)C(N)=O)C(C)C [WKDMVm-NH2] (H-WKDMV[dM]-NH2)
10 | 1300 | CSCC[C@H](NC(=O)[C@H](CCC(=O)O)NC(=O)[C@H](CCCCN)NC(=O)[C@@H](N)Cc1c[nH]c2ccccc12)C(=O)N[C@H](C(=O)N[C@H](CCSC)C(N)=O)C(C)C [WKEMVm-NH2] (H-WKEMV[dM]-NH2)
11 | 18 | CSCC[C@H](NC(=O)[C@H](Cc1ccccc1)NC(=O)[C@H](CCCCN)NC(=O)[C@@H](N)Cc1c[nH]c2ccccc12)C(=O)N[C@H](C(=O)N[C@H](CCSC)C(N)=O)C(C)C [WKFMVm-NH2] (H-WKFMV[dM]-NH2)
12 | 282 | CSCC[C@H](NC(=O)[C@H](Cc1c[nH]cn1)NC(=O)[C@H](CCCCN)NC(=O)[C@@H](N)Cc1c[nH]c2ccccc12)C(=O)N[C@H](C(=O)N[C@H](CCSC)C(N)=O)C(C)C [WKHMVm-NH2] (H-WKHMV[dM]-NH2)
